From article PMC12812009, “Optimization of 4‐Amino‐2‐Pyridone Inhibitors of Proprotein Convertase Subtilisin/Kexin Type 9: Integrating Structure–Activity and Structure–Metabolism Relationships” (Chemmedchem, 2025)

Tests used:
[1] = In vitro metabolic stability with mouse liver microsomes; assay type: in vitro ADME; settings: for metabolic stability/PCSK9 IC50 ratio (in words): with respect to 5c; for metabolic stability (in words): MLM + NADPH-generating system
Description: All newly synthesized LSF derivatives of 5c were biologically evaluated to determine whether the introduced modifications influenced both metabolic stability and anti‐PCSK9 activity. Microsomal stability assays were conducted to assess the impact of LSF modifications on improving the stability of 5c. In these assays, LSF derivatives were incubated with mouse liver microsomes (MLM) and an NADPH‐generating system for 60 min, followed by HPLC analysis. Control samples included compounds and liver microsomes without the NADPH system, allowing for the assessment of nonspecific binding to microsomes. […] Acylated derivatives 12, 13, and 14 achieved stability levels exceeding 95%, as did the bicyclic derivative 7, which exemplifies a dual‐site functionalization.
MLM (pooled male) were obtained from Xenotech, LLC (Cambridge, Kansas City, USA). Glucose‐6‐phosphate (G6P), oxidized nicotinamide‐adenine‐dinucleotide phosphate (NADP^+), magnesium chloride (MgCl2), and glucose‐6‐phosphate‐dehydrogenase (G6PDH) were supplied by Sigma‐Aldrich (Milan, Italy). Metabolic stability assays were modified from Ferlenghi et al.^[ [33] ^] Briefly, samples were prepared in 100 mM phosphate buffered saline (PBS), pH 7.4, containing 1 mg ml^–1 MLM and a NADPH‐generating system (5 mM MgCl2, 10 mM glucose‐6‐phosphate, 2 mM NADP^+, 1.5 U ml^–1 of glucose‐6‐phosphate dehydrogenase). After incubation (37 °C, 5 min stirring), compounds stock solutions in DMSO were added to a final concentration of 10 µM. The final DMSO percentage in samples was kept at 0.5%. After 60 min, single aliquots of reaction mixture were withdrawn, added of two volumes of acetonitrile, centrifuged (10,000 g, 10 min) and the supernatant was analyzed by HPLC. The unspecific binding to MLM was evaluated by means of control samples in which the compounds were incubated in the absence of a NADPH generating system. The apparatus used for HPLC analysis was a Shimadzu instrument, with a reverse‐phase Nova‐Pak column (Waters) (C18 4 μm 3.9 × 150 mm, Waters). The mobile phase, pumped at a flow rate of 1.2 ml min^–1, consisted of water and acetonitrile in either a 50:50 (v/v) ratio (compounds 5c, 6a, 6b, 6c, 7, 8, 12, 13, 14, 17b) or a 40:60 (v/v) ratio (compounds 11 and 15) or a 30:70 (v/v) ratio (for compounds 17a, 18a, 18b). For compounds 9 and 10, a phosphate buffer (5.98 g L^–1 Na2HPO4, 0.19 g L^–1 KH2PO4, adjusted to pH 7.4 with 85% H3PO4 and supplemented with 1.4 mL L^–1 triethylamine; final pH: 8) and acetonitrile (50:50, v/v) were pumped at a flow rate of 2 mL min^–1. In all cases, column temperature was 35 °C, injection volume was 50 µl, and absorbance was monitored at 254 nm. Serial dilutions for the calibration curves were prepared in the interval 0.5–20 µM in either PBS:CH3CN or H2O:CH3CN mixture (50:50, v/v) for compounds 5c, 6a, 6b, 8, 9, 10, 11, 12, 13, 14, 15, 17a, 17b, 18a, 18b, and in acetonitrile for compounds 6c and 7.

[2] = test system: PCSK9 protein; experiment: Western blot of PCSK9 protein levels in HepG2 cells; assay type: cell-based, human; settings: 10 µM, HepG2, 24 h
Description: (§1) The third step of our functional assay was focused on the most promising compounds from the previous step (6b and 7), looking at the PCSK9 and LDLR protein expressions in HepG2 cells treated with increasing concentrations of the compounds (2.5–5–10 µM). This analysis, conducted in comparison with 5c using a Western blot assay, aimed to provide a more comprehensive understanding of the intracellular activity and efficacy of these novel PCSK9i , further supporting their potential for preclinical development. […] Importantly, LDLR protein levels were increased by compound 7 only at 10 µM (+39%, p < 0.01, Figure 6B) as compared to basal condition.
(§2) HepG2 cells were seeded at the cellular density of 500,000 cells/well in a 6‐well tray, in 2 mL of complete medium, and incubated as described above. The day after, treatments were prepared in starving medium. The cells were washed once with PBS and then incubated with media containing treatments. […] Total protein content was measured through bicinchoninic acid (BCA) assay (Euroclone, EMP014250), according to manufacturer's instructions. […] Immunobands were detected with Imager Alliance Q9 ATOM Supreme by UVITEC (Cambridge, UK) after 5 min of membranes incubation in the dark with ECL Star solution (EuroClone, EMP001005). Every experimental condition was run in triplicate and the average cell viability and standard deviation was calculated.

[3] = test system: LDLR protein; experiment: Western blot of LDLR protein levels in HepG2 cells; assay type: cell-based, human; settings: HepG2, 24 h
Description: as §1, §2

[4] = test system: circulating PCSK9; parameters: method as in PMID 38160616; settings: mice; cited from earlier work
[5] = parameters: method as in PMID 38160616; settings: seven days of daily subcutaneous administration; cited from earlier work

| Compound | metabolic stability, percentage of intact compound recovered relative to control ([1]; MLM 1 mg/ml + NADPH-generating system, 60 min, 10 µM, HPLC) | metabolic stability/PCSK9 IC50 ratio (in words) [1] | PCSK9 protein level change vs. basal [2] [%] | LDLR protein level change vs. basal ([3]; 10 µM) | metabolic stability (in words) ([1]; 60 min) | maximal reduction of PCSK9 protein levels vs. basal [2] [%] | LDLR expression (in words) ([3]; 2.5–5–10 µM) | circulating PCSK9 levels in vivo (in words) [4] | tolerability in mice (in words) [5] |
| --- | --- | --- | --- | --- | --- | --- | --- | --- | --- |
| Cc1cc2c(sc(=N)n2Cc2ccc(C(F)(F)F)cc2)c(=O)n1Cc1ccc(C(F)(F)F)cc1 [Compound 7, 2‐Imino‐6‐Methyl‐1,5‐Bis(4‐(Trifluoromethyl)benzyl)‐1,2‐Dihydrothiazolo[5,4‐c]pyridin‐4(5H)‐One] | exceeding 95% | higher metabolic stability/PCSK9 IC50 ratio | −42 | +39% |  |  |  |  |  |
| Cc1cc(NCc2ccc(C(F)(F)F)cc2)c(Br)c(=O)n1Cc1ccc(C(F)(F)F)cc1 [Compound 6b, 3‐Bromo‐6‐Methyl‐1‐(4‐(Trifluoromethyl)Benzyl)‐4‐((4‐(Trifluoromethyl)Benzyl)Amino)pyridin‐2(1H)‐One] |  | higher metabolic stability/PCSK9 IC50 ratio |  |  | greater stability compared to chlorinated 6a | 93 | did not modulate its expression at all concentrations tested |  |  |
| Cc1cc(NCc2ccc(C(F)(F)F)cc2)cc(=O)n1Cc1ccc(C(F)(F)F)cc1 [Compound 5c] |  |  |  |  | suboptimal metabolic stability |  |  | did not demonstrate a significant reduction in circulating PCSK9 levels | well tolerated |
